Assay results: PubChem BioAssay AID179 (DTP/NCI, 2004)
Values joined by “and” are separate entries in the source; they are usually repeats but may differ in a detail not shown here. Identical values can stand only once. Active and inactive are the calls of the source.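 Rule for the calls: active = compounds giving half or more protection of infected cells from virus-caused growth loss, again on retest; inactive = the rest.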

Tested on: CEM cells HIV-1 protection, formazan growth assay
Test: NCI AIDS Antiviral Assay
Details: for IC50: measured here: growth of uninfected CEM cells
Summary of the method: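 Human CEM cells, uninfected and HIV-1-infected, exposed to five drug concentrations; growth measured by soluble formazan assay and scored as percent protection from infection, with protecting compounds retested.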

O=S1(=O)OCCCO1
EC50: > 1820 µM
IC50: > 1820 µM

CC1(C)C(=O)c2ccccc2OC1N1CCN(C2Oc3ccccc3C(=O)C2(C)C)CC1 (centres undefined)
outcome: inactive

NC(C/[N+]([O-])=N/O)C(=O)O (centres undefined)
EC50: > 11 µM
IC50: 2.4 µM

COC(=O)CN1C(=O)c2cccc3cc(N)cc(c23)C1=O
EC50: > 200 µM
IC50: > 200 µM

CC(C)c1nc2c(c(=O)o1)CCS2
EC50: > 182 µM
IC50: > 182 µM

O=S(=O)(c1ccccc1)c1nccs1
EC50: 110 µM
IC50: 575 µM

CC1(C)CC(=O)C(/C=N/C(=S)NC2CCCCC2)=C(O)C1
EC50: > 100 µM
IC50: > 100 µM

CC(C)CCCC(C)C1CCC2C3CCC(=O)C(C)(CCCNCCO)C3CCC12C (centres undefined)
EC50: > 20 µM
IC50: 2.88 µM

CNc1nnc(CNc2ccc(-c3nnc(NC)n3N)cc2)n1N
EC50: > 200 µM
IC50: > 200 µM

CSCCOC(=O)C(=[N+]=[N-])c1ccc([N+](=O)[O-])cc1
outcome: inactive

CC1(C)Cc2c(oc3ncnc(N)c23)CS1
EC50: > 288 µM
IC50: > 288 µM

N#CC(C#N)=Cc1cc(O)c(O)c(O)c1
EC50: > 200 µM
IC50: 31.6 µM

Cc1ccc(O)c(OC2OC(C(=O)O)C(O)C(O)C2O)c1 (centres undefined)
EC50: > 832 µM
IC50: > 832 µM

O=C(/C=C/c1ccccc1)CC1OC(=O)c2ccccc21 (centres undefined)
EC50: > 245 µM
IC50: 129 µM

COC1CC(O)C2OC(c3ccccc3)OCC2O1 (centres undefined)
outcome: inactive

O=S(=O)(Sc1ccccc1)C(c1ccccc1)c1ccccc1
EC50: > 132 µM
IC50: 21.4 µM

CCN(C(=S)N[C@H](C(=O)N[C@@H](C)C(=O)OC)C(C)C)c1ccccc1
EC50: 0.575 µM
IC50: 29.5 µM

Cn1c(=O)n2n(c1=O)C1(CCO)CCC2(CCO)CC1
EC50: > 331 µM
IC50: > 331 µM

CCN(CC)C(=O)Oc1c(Br)ccc2cc(C)cc(OC)c12
EC50: > 200 µM
IC50: > 200 µM

CO[C@@H]1/C=C\C=C(/C)C(=O)NC2=CC(=O)C(NCCN(C)C)=C(C[C@@H](C)C[C@@H](OC)[C@@H](O)[C@H](C)/C=C(\C)[C@H]1OC(N)=O)C2=O
EC50: > 2 µM
IC50: 0.102 µM

CC(=O)C1CC(C)=CCC12C(=O)Nc1ccccc12 (centres undefined)
EC50: > 195 µM
IC50: > 195 µM

O=C(Cc1cccs1)N[C@@H]1C(=O)N2C(C(=O)OC(c3ccccc3)c3ccccc3)=C(CO)CS[C@H]12
EC50: > 200 µM
IC50: 195 µM

COC(=O)C(C)(C)NC(=O)C(Cc1ccccc1)Nc1ncnc2c1ncn2-c1ccc(OC)cc1 (centres undefined)
outcome: inactive
IC50: 56.2 µM

O=C(O)[C@@H](NS(=O)(=O)c1ccc(F)cc1)c1ccccc1
outcome: inactive

C=C(C)[C@@H]1CC[C@]2(COC(=O)CC(C)(C)CC(=O)O)CC[C@]3(C)[C@H](CC[C@@H]4[C@@]5(C)CC[C@H](OC(=O)CC(C)(C)CC(=O)O)C(C)(C)[C@@H]5CC[C@]43C)[C@@H]12
EC50: > 200 µM
IC50: 7.08 µM

O=C1OC(=O)C2C3CC(C12)C1C3N1S(=O)(=O)c1ccccc1 (centres undefined)
EC50: > 132 µM
IC50: > 132 µM

CC1(C)C2CCC(CN)(C2)C1N (centres undefined)
EC50: > 200 µM
IC50: > 200 µM

Cc1ccc2c(c1)SCc1c-2[nH]c2ccccc12
outcome: inactive

O=Cc1cn(CCCCCCCCCCCCn2cc(C=O)c3ccccc32)c2ccccc12
EC50: > 200 µM
IC50: 1.2 µM

COC(=O)c1c(O)c2c(c3c1OC(C)(C)CC3)OC(C)(C)CC2
EC50: > 200 µM
IC50: 93.3 µM

CC1OC(OC2C(O)COC(OC3C(C)OC(OC4C(OC(=O)[C@]56CCC(C)(C)C[C@@H]5C5=CCC7[C@@]8(C)C[C@H](O)[C@H](OC9OC(CO)C(O)C(OC%10OC(CO)C(O)C(O)C%10O)C9O)[C@@](C)(CO)[C@@H]8CC[C@@]7(C)[C@]5(C)CC6)OCC(O)C4O)C(O)C3OC3OCC(O)C(O)C3O)C2O)C(O)C(O)C1O (some centres undefined)
EC50: > 17 µM
IC50: > 17 µM

C=CCc1c(O)c2c(c3oc(=O)cc(C)c13)CC(C)O2 (centres undefined)
outcome: inactive

Nc1nc(N)c(CCCCc2ccccc2)c(/C=C/c2ccc([N+](=O)[O-])cc2)n1
outcome: inactive

C[C@@H]1C[C@@H]2C(=O)N(c3ccccc3)C(=O)[C@@H]2c2[nH]c3ccc(Br)cc3c21
outcome: inactive

O=c1c(Br)cc2nc3ccccc3sc-2c1Br
EC50: > 10 µM
IC50: > 10 µM

CCOP(=O)(OCC)/C(F)=C/c1ccccc1
EC50: > 200 µM
IC50: > 200 µM

Cn1c(=O)c2c(ncn2CCCCn2ccnc2[N+](=O)[O-])n(C)c1=O
EC50: > 200 µM
IC50: > 200 µM

COc1ccc2nc3cccc([N+](=O)[O-])c3c(NCCN(CCO)CCO)c2c1
EC50: > 2 µM
IC50: 0.0977 µM

O=C1/C(=C/c2ccc(Cl)cc2)NC(=S)N1CN1CCOCC1
EC50: > 200 µM
IC50: 32.4 µM

COC(=O)c1ccc2c(c1)CC1(C2)Cc2ccc3c(c2C1)CCC3 (centres undefined)
EC50: > 200 µM
IC50: > 200 µM

Brc1cccc[n+]1Cc1cccc(C[n+]2ccccc2Br)c1
EC50: 0.0631 µM
IC50: 141 µM

O=C1NC(S(=O)(=O)O)=NNC12c1ccccc1-c1ccccc12
EC50: > 200 µM
IC50: 107 µM

COC(CNC(=O)C(C)NC(=O)CCc1ccccc1)OC (centres undefined)
outcome: inactive

COc1ccc(OC)c(NC(=O)CCC/C(CC(=O)c2ccc(O)c(OC)c2)=N\Nc2nnc(C)n2N)c1
EC50: > 7.24 µM
IC50: > 7.24 µM

COc1nc2nc(C(O)C(O)CO)cnc2c(=O)n1C (centres undefined)
EC50: > 891 µM
outcome: inactive
IC50: > 891 µM

COC(=O)C1C(C(=O)OC)C2N(c3ccccc3)C=NN2C1C(=O)c1ccccc1 (centres undefined)
EC50: 182 µM
IC50: > 200 µM

[O-]c1c2c(nn1-c1ccc(F)cc1)c1ccccc1c[n+]2Cc1ccccc1
outcome: inactive

O=c1[nH]c(=O)n(C2CC(O)C(CO)O2)cc1Oc1ccccc1 (centres undefined)
EC50: > 200 µM
IC50: > 200 µM

Cc1c(/C=N/NC(=O)c2cc(Br)cc(Br)c2O)c(=O)n(-c2ccccc2)n1C
EC50: > 200 µM
IC50: 123 µM

CCC[CH2][Sn]([CH2]CCC)([O]C(=O)c1cc(OC)c(OC)cc1OC)[O][Sn]([CH2]CCC)([CH2]CCC)[O]C(=O)c1cc(OC)c(OC)cc1OC
EC50: > 11 µM
IC50: 0.302 µM

Nc1cc2c3c(c1)Oc1cc(N)cc4c1C3c1c(cc(N)cc1O4)O2
EC50: > 30.9 µM
IC50: 23.4 µM

CC(C)[Si](O[C@@H]1CCC[C@@]23O[C@@H]2CC2C(=O)c4c(O)cccc4C(=O)[C@@]2(O)[C@@H]13)(C(C)C)C(C)C (some centres undefined)
EC50: > 200 µM
IC50: 14.1 µM

CCOC(=O)C1Cc2[nH]c3ccccc3c2C(C)C1C (centres undefined)
EC50: > 95.5 µM
IC50: 49 µM

C[C@@H](c1ccccc1)N1C[C@@H](c2ccc3c(c2)OCO3)[C@@H]2C(=O)CCC[C@@H]21
EC50: > 200 µM
IC50: 112 µM

CCOC(=O)c1ccccc1NN1C(=O)C=CC1=O
EC50: > 347 µM
IC50: 52.5 µM

CCCCCCCCC/C=C(/CC(=O)O)C(=O)O
EC50: > 708 µM
IC50: > 708 µM

COC1(OC)c2occc2C(=N)c2ccc(=O)oc21
EC50: > 200 µM
IC50: 129 µM

CCC(=O)N(c1ccccc1)C(C)CN1CCC(O)(c2cccc(C(F)(F)F)c2)CC1 (centres undefined)
EC50: > 200 µM
IC50: 74.1 µM

CCCCC/C=C\CCC/C=C\CCCCCCOP(=O)(O)OCCC=C(c1cc(Cl)c(O)c(C(=O)O)c1)c1cc(Cl)c(O)c(C(=O)O)c1
EC50: > 126 µM
IC50: 83.2 µM

COC(=O)CCC(C)C1CCC2C3CCC4CC5CCC4C3(CO5)C(=O)C(Br)C12C (centres undefined)
EC50: > 10.7 µM
IC50: > 10.7 µM

C/C(=N/NC(=S)N(C)CCc1ccccn1)c1cnccn1
EC50: > 0.2 µM
IC50: 0.0178 µM

CC(O)CN1c2ccccc2Sc2ccc(Cl)cc21 (centres undefined)
EC50: > 200 µM
IC50: 42.7 µM

O=C1C=C(c2ccccc2)C(c2ccccc2)C1O (centres undefined)
EC50: > 200 µM
IC50: 135 µM

CCOP(=O)(OCC)C1C(=O)O[C@H]2CCCC[C@@H]12 (some centres undefined)
outcome: inactive

Cc1ccc(/C=C2\CCCC(CN3CCCCC3)C2=O)cc1 (centres undefined)
EC50: > 200 µM
IC50: 0.724 µM

CC(C)(O)C1CCC2(C)CC(=O)NCCN12 (centres undefined)
EC50: > 398 µM
IC50: > 398 µM

C/C(=N/NC(=S)N(C)C)c1ccccc1O
EC50: > 200 µM
IC50: 11.7 µM

CCC(O)CCCCCCCCCCCCCCC(=O)O (centres undefined)
outcome: inactive

CN(C)C(=S)N/N=C\C=N/NC(=S)N(C)C
EC50: > 0.2 µM
IC50: 0.117 µM

C[C@@]12[Se]c3ccccc3[C@]1(C)[Se]c1ccccc12
outcome: inactive

Nc1ncnc2c1ncn2C1CC(OCc2ccccc2[N+](=O)[O-])C(CO)O1 (centres undefined)
EC50: > 50.1 µM
IC50: 36.3 µM

COc1cc(C2c3cc4c(cc3OC(NN)C2C)OCO4)cc(OC)c1OC (centres undefined)
EC50: > 200 µM
IC50: 1 µM

CC1(C)CC[C@]2(C)CC=C3[C@]4(C)CC[C@H]5C(C)(C)C(=O)CC[C@]5(C)[C@H]4CC[C@@]3(C)[C@H]2C1
EC50: > 50.1 µM
IC50: > 50.1 µM

O=C(O)c1cc(=O)c2c(OCC(O)COc3cccc4oc(C(=O)O)cc(=O)c34)cccc2o1
EC50: > 200 µM
IC50: > 200 µM

Cc1cccc2c(=O)c3c(O)cc(O)cc3[nH]c12
EC50: > 200 µM
IC50: 14.5 µM

COc1cc(OC)c(NC2=NCCO2)cc1Cl
EC50: > 200 µM
IC50: 13.5 µM

Clc1nc2nc3ccccc3nc2nc1Cl
EC50: > 100 µM
IC50: 77.6 µM

CCOC(=O)/C=C/SCCCC(=O)O
IC50: > 1150 µM and 1150 µM

CC1(C)OCC=CCO1
EC50: > 200 µM
IC50: > 200 µM

COc1cccc2c(=O)c3c(n(C)c12)OC(C(C)C)C3 (centres undefined)
EC50: > 339 µM
IC50: 126 µM

N#CC(C#N)=C1CCCS(=O)(=O)c2ccccc21
EC50: > 200 µM
IC50: > 200 µM

COc1ccc(-c2nc(SC3OC(COC(C)=O)C(OC(C)=O)C(OC(C)=O)C3OC(C)=O)n(C3OC(COC(C)=O)C(OC(C)=O)C(OC(C)=O)C3OC(C)=O)c(=O)c2C#N)cc1 (centres undefined)
IC50: > 100 µM

COc1cc(/C=C/c2ccc(OC)c(OC)c2)cc(OC2OC(CO)C(O)C(O)C2O)c1 (centres undefined)
outcome: inactive

CC1=NN2C(c3ccc(Cl)cc3)=CSC2=NC(C)(C)C1
EC50: > 162 µM
IC50: 93.3 µM

N#Cc1c(N)[nH]c2ccc(Sc3ccccc3)cc12
EC50: > 70.8 µM
IC50: 0.0832 µM

CCOC(=O)c1sc2nc(CN3CCOCC3)[nH]c(=O)c2c1C
EC50: > 77.6 µM
IC50: > 77.6 µM

CC(=O)c1ccc2c(c1)CC1(C2)Cc2ccccc2C1=O (centres undefined)
EC50: > 200 µM
IC50: 74.1 µM
